Measured values as given in patent US11452781B2, “Method of preventing and treating type 1 diabetes, allograft rejection and lung fibrosis (by targeting the ATP/P2X7R axis)” (CHILDREN'S MEDICAL CENTER CORPORATION, priority 2013, dated 2022).
Values joined by “and” are separate entries in the source; they are usually repeats but may differ in a detail not shown here. Equal values may be shown once. “Also recorded” adds a separate entry of the source.

Tests used:
[1] = system: C57BL/6 mice transplanted with BALB/c hearts; type: in vivo, mouse; parameters: long-term cardiac transplant survival (>100 days), share of recipients: dose or concentration left out as unconfirmed; conditions: oATP i.p. daily for 14 days
Description: The effect of P2X7R targeting in preventing cardiac transplant rejection was tested using the P2X7R inhibitor oATP.

[2] = system: splenocytes of cardiac-transplanted mice; experiment: Immune profiling of cardiac-transplanted mice (ELISPOT with BALB/c irradiated splenocytes, flow cytometry); type: in vivo, mouse
Description: To evaluate the effect of P2X7R targeting on the immune system of cardiac-transplanted mice, splenocytes were harvested at days 7 and 100 post-transplantation and were challenged with BALB/c irradiated splenocytes in an ELISPOT assay.
The effect of P2X7R targeting in preventing cardiac transplant rejection was tested by using the P2X7R inhibitor oATP. Untreated C57BL/6 mice transplanted with BALB/c hearts (fully mismatched) invariably rejected grafts within 7 days (mean survival time of 7 days). P2X7R targeting with the use of the short-term treatment of oATP ([…] oATP intraperitoneally daily for 14 days) induced long-term cardiac transplant survival (>100 days) in 80% of recipients. To evaluate the effect of P2X7R targeting on the immune system of cardiac-transplanted mice, splenocytes were harvested at days 7 and 100 posttransplantation and were challenged with BALB/c irradiated splenocytes in an enzyme-linked immunosorbent spot (ELISPOT) assay. […] The percentages of CD4+ Teffs and CD8+ Teffs were reduced by in vivo short-term P2X7R targeting in mice at days 7 and 100 posttransplantation in comparison with untreated mice.
mice adoptively transferred with naïve C57BL/6 splenocytes, and no protection was observed when splenocytes obtained from mice with long-term graft function were coadoptively transferred with naïve splenocytes. Conversely, prolonged graft survival >50 days was observed when splenocytes obtained from cardiac-transplanted mice with long-term graft function were adoptively transferred. […] The immunocompetence of treated mice at day 100 after transplantation was tested.

[3] = system: C57BL/6 mice transplanted with BALB/c islets; experiment: Allogeneic islet transplantation, BALB/c islets into diabetic C57BL/6 mice: graft survival; type: in vivo, mouse
islet allografts = experiment: Islet allograft pathology, RT-PCR transcripts, insulin and glucagon content; type: in vivo, mouse
Description: The presence of […] was then analyzed in the graft infiltrate by quantification, via RT-PCR, by assessing intra-graft Tbet and Rorc mRNA expression.

naïve CD4+ T-cells [4] = experiment: ELISPOT, naïve CD4+ T cells stimulated with anti-CD3-Ig and anti-CD28-Ig; type: cell-based, mouse
Description: (§1) The effect of P2X7R targeting was tested by treatment with oATP during T-cell activation. […] Similarly, in a T-cell proliferation assay, CFSE-labeled naïve CD4^+ T-cells were stimulated for 4 days with 0.5 μg/ml anti-CD3-Ig and anti-CD28-Ig; treatment with 100 μM oATP diminished CD4^+ T-cell proliferation (FIG. 5B, right panel) compared to controls (FIG. 5B, left panel).
To address the mechanisms underlying P2X7R targeting mediated inhibition of cardiac transplant rejection, the inventors analyzed the effect of P2X7R targeting on T-cell activation and Th1/Th17 differentiation in vitro. […] The effect of in vitro P2X7R targeting with oATP during CD4+ T-cell activation was tested. […] Second, in a T-cell proliferation assay, carboxyfluorescein diacetate succinimidyl ester-labeled naïve CD4+ T cells were stimulated for 96 hours with 0.5 μg/mL anti-CD3-Ig and anti-CD28-Ig, and treatment with 100 μM oATP diminished CD4+ T cell proliferation in comparison with controls. […] The inventors next tested the effect of in vitro P2X7R targeting during a Th1/Th17 generation and differentiation assay. […] P2X7R targeting with oATP inhibited Th0 conversion into both Th1 and Th17, as assessed by the percentage of IFN-γ+ and IL-17+ cells, respectively. The inventors show, therefore, that P2X7R targeting through oATP suppresses activation, proliferation, and Th1/Th17 differentiation of CD4+ T cells. The inventors then further investigated the role of P2X7R on T-cell activation and Th1/Th17 differentiation by genetic upregulation of P2X7R. P2X7R cDNA was transduced by using a pMY-IRES-GFP retroviral vector into CD4+ T cells (pmY-P2X7R CD4+ T cells), and upregulation of P2X7R expression was confirmed by Western blot. pmY-P2X7R CD4+ T cells were then challenged with anti-CD3-Ig/anti-CD28-Ig stimulation in an ELISPOT assay. […] In a Th1/Th17 generation assay, pmY-P2X7R CD4+ T cells seemed to display increased differentiation capacity in comparison with pmY-mock CD4+ T cells, as assessed by T-bet and ROR-γ expression.
(§2) Several key components of T-cell receptor signaling involved in the alloimmune response were examined, and the phosphorylation kinetics following in vitro anti-CD3-Ig/anti-CD28-Ig-mediated CD4+ T-cell activation was evaluated by using the Luminex assay. […] The inventors first confirmed that Colivelin (Col) was able to restore the activation-induced phosphorylation of STAT3 in a dose-dependent manner in oATP-treated CD4+ T cells by Western blotting. […] The effect of oATP and Colivelin on STAT3 phosphorylation and T-cell function was also evaluated following cardiac transplantation.

naïve CD4+ T-cells [5] = experiment: CFSE T-cell proliferation assay, anti-CD3-Ig/anti-CD28-Ig; type: cell-based, mouse; conditions: 100 μM oATP, 4 days (96 hours)
Description: as §1
To address the mechanisms underlying P2X7R targeting mediated inhibition of cardiac transplant rejection, the inventors analyzed the effect of P2X7R targeting on T-cell activation and Th1/Th17 differentiation in vitro. […] The effect of in vitro P2X7R targeting with oATP during CD4+ T-cell activation was tested. […] Second, in a T-cell proliferation assay, carboxyfluorescein diacetate succinimidyl ester-labeled naïve CD4+ T cells were stimulated for 96 hours with 0.5 μg/mL anti-CD3-Ig and anti-CD28-Ig, and treatment with 100 μM oATP diminished CD4+ T cell proliferation in comparison with controls. […] P2X7R targeting with oATP inhibited Th0 conversion into both Th1 and Th17, as assessed by the percentage of IFN-γ+ and IL-17+ cells, respectively. […] In a Th1/Th17 generation assay, pmY-P2X7R CD4+ T cells seemed to display increased differentiation capacity in comparison with pmY-mock CD4+ T cells, as assessed by T-bet and ROR-γ expression.

[6] = Phosphorylation of T-cell signaling molecules in activated CD4+ T cells (Luminex/Milliplex, Western blot); type: cell-based, mouse
Description: (§3) 60 minutes after anti-CD3-Ig and anti-CD28-Ig mediated activation, cells were lysed and the phosphorylation status of CREB, Erk, Akt, JNK, p38, p70 S6 Kinase, STAT3, and STAT5A/B was assessed using the Millipore Milliplex Cell Signaling Assay. […] Data were confirmed by western blot (FIG. 6D).
as §2

STAT3 = experiment: as above; type: cell-based, mouse; conditions: 60 minutes after activation
Description: as §3, §2

[7] = system: P2X7R−/− mice transplanted with BALB/c hearts; experiment: Cardiac transplantation into P2X7R-/- mice; type: in vivo, mouse; conditions: P2X7R−/− recipients
From the text: oATP has been proposed to exert secondary immunomodulatory mechanisms, primarily related to the inhibition of the remaining P2XsR. To verify that the effect on the prevention of cardiac transplant rejection was predominantly due to P2X7R inhibition, the P2X7R−/− C57BL/6 mouse model was used. BALB/c hearts were transplanted into P2X7R−/− mice, and cardiac transplant survival was compared with that of wild-type recipients.

mouse CD8 T cells = experiment: Isolated CD8 T cells stimulated with anti-CD3, TNF-α, IFN-γ and granzyme B expression; type: cell-based; conditions: anti-CD3 10 μg/ml
C57BL/6 splenocytes = experiment: Apoptosis of allo-challenged splenocytes (annexin V, FACS); conditions: oATP, 24 h
Description: To confirm the data obtained in vivo, the effect of targeting P2X7R in vitro was evaluated using alloimmune-relevant assays. Responder splenocytes from C57BL/6 mice were challenged with irradiated stimulator splenocytes from BALB/c mice. The numbers of cells producing IFN-γ and IL-4 were evaluated in an ELISPOT assay in the presence of increasing concentrations of oATP.

## periodate-oxidized ATP [oATP]
[1]
  long-term cardiac transplant survival (>100 days), share of recipients: 80%
[2]; day 7
  percentage of Tregs: No differences
[2]; day 100
  percentage of Tregs: an increase
[2]; days 7 and 100 vs untreated
  percentages of CD4+ Teffs and CD8+ Teffs: reduced
[2]; oATP-treated mice at day 100 vs naïve mice
  IFN-γ-producing cells after ovalbumin immunization (immunocompetence): no differences
[2]; oATP-treated vs untreated, day 7
  number of IL-4-producing cells (ELISPOT): increased
[2]; oATP-treated vs untreated, day 7 (and day 100)
  number of IFN-γ-producing cells (ELISPOT): Reduced; also recorded: fewer
[2]; vs untreated, days 7 and 100
  percentage of Th17 cells (CD4+IL17+): similarly reduced; also recorded: fewer
[3]; mouse, in vivo
  islet allograft survival (in words): prolongs graft survival
  mice with long-term graft function at 100 days (of n): 3 out of 10 and 3 of 10
[3]; oATP daily i.p. 14-15 days, rapamycin 0.1 mg/kg 10 days
  islet allograft mean survival time (MST): 22 days
Islet allografts; day 14 (oATP), long-term (oATP+rapamycin)
  islet structure, insulin and glucagon staining: preserved insulin staining; also recorded: maintained
Islet allografts; day 14, n=3
  reduction of Tbet mRNA expression vs untreated: threefold decrease
naïve CD4+ T-cells [4]; 100 μM oATP, 24 hours
  number of IFN-γ-producing CD4+ T-cells: significantly reduced; also recorded: suppressed
naïve CD4+ T-cells [4]; oATP present during stimulation
  expression levels of the P2XsR: not influenced
naïve CD4+ T-cells [5]
  CD4+ T-cell proliferation: diminished; also recorded: suppressed
[6]
  phosphorylation of JNK/SAPK1, p70/S6, or STAT5: unaffected
STAT3
  activation-induced STAT3 phosphorylation: reduced level; also recorded: prevented phosphorylation of STAT3; also recorded: significant inhibition
[7]
  ability to prolong cardiac transplant survival: severely altered
Mouse CD8 T cells
  expression of TNF-α, IFN-γ and granzyme B: reduction; also recorded: impaired activation
C57BL/6 splenocytes
  percentage of apoptotic cells (annexin V+): no increase
